Test results taken from ChEMBL document CHEMBL4138184 (J Nat Prod, 2017).

What was measured:
MDA-MB-231 [1] = test: Antiproliferative activity against human MDA-MB-231 cells at 1 nM to 100 uM after 24 hrs by MTT assay relative to control; type: functional; conditions: at 0.001 to 100 µM
[2] = Antiproliferative activity against mouse mammary carcinoma cell at 1 nM to 100 uM after 24 hrs by MTT assay relative to control; type: functional; conditions: at 0.001 to 100 µM
[3] = molecular target: T1, Melatonin receptor type 1A (Homo sapiens, UniProt P48039)
T1 sequence (P48039 whole entry): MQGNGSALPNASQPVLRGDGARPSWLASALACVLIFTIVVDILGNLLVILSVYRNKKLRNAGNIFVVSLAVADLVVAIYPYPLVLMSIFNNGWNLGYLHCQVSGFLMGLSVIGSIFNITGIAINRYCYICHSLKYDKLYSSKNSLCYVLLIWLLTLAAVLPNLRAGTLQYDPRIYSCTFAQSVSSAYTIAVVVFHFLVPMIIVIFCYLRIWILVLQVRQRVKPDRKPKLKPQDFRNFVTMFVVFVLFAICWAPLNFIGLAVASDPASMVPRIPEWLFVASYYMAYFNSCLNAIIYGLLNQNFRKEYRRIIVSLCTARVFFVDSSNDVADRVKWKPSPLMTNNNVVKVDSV

MDA-MB-231 [4] = test: Antiproliferative activity against human MDA-MB-231 cells after 24 hrs by MTT assay; type: functional, cell-based; conditions: MDA-MB-231, 24 h
MCF7 [5] = test: Antiproliferative activity against human MCF7 cells at 1 nM to 100 uM after 24 hrs by MTT assay relative to control; type: functional; conditions: at 0.001 to 100 µM
[6] = Antiproliferative activity against mouse mammary carcinoma cell after 24 hrs by MTT assay; type: functional
BT-549 [7] = test: Antiproliferative activity against human BT549 cells after 24 hrs by MTT assay; type: functional, cell-based; conditions: BT-549, 24 h
BT-549 [8] = test: Antiproliferative activity against human BT549 cells at 1 nM to 100 uM after 24 hrs by MTT assay relative to control; type: functional; conditions: at 0.001 to 100 µM
MCF7 [9] = test: Inhibition of cell migration in human MCF7 cells at 100 uM after 24 hrs by inverted fluorescence microscopy based scratch assay relative to control; type: functional; conditions: MCF7, 24 h
MDA-MB-231 [10] = test: Inhibition of cell migration in human MDA-MB-231 cells at 100 uM after 24 hrs by inverted fluorescence microscopy based scratch assay relative to control; type: functional; conditions: MDA-MB-231, 24 h
BT-549 [11] = test: Inhibition of cell migration in human BT549 cells at 100 uM after 24 hrs by inverted fluorescence microscopy based scratch assay relative to control; type: functional; conditions: BT-549, 24 h
[12] = Inhibition of cell migration in mouse mammary carcinoma cell at 100 uM after 24 hrs by inverted fluorescence microscopy based scratch assay relative to control; type: functional
MCF7 [13] = test: Antiproliferative activity against human MCF7 cells after 24 hrs by MTT assay; type: functional, cell-based; conditions: MCF7, 24 h
[14] = molecular target: T1, Melatonin receptor type 1A; remark: listed apart in the source

Row | SMILES | Ki [3] [µM] | IC50 (MDA-MB-231 [4]) [µM] | IC50 (BT-549 [7]) [µM] | IC50 (MCF7 [13]) [µM] | KiH [14] [nM] | KiL [14] [nM] | Efficacy (MDA-MB-231 [1]) [%] | Efficacy [2] [%] | Efficacy (MCF7 [5]) [%] | IC50 [6] [µM] | Efficacy (BT-549 [8]) [%] | inhibition at 100 µM (MCF7 [9]) [%] | inhibition at 100 µM (MDA-MB-231 [10]) [%] | inhibition at 100 µM (BT-549 [11]) [%] | inhibition at 100 µM [12] [%]
1 | O=c1ccc2ccc(O/C=C/c3ccccc3)cc2o1 | 0.37 | 6.6 | 140 | 2.2 |  |  | 82 | 93 | 87 |  | 86 |  |  |  | 
2 | CCC#CCOc1ccc2ccc(=O)oc2c1 [7-(2-PENTYNYLOXY)COUMARIN] | 0.888 |  | 74 | 50 |  |  | 87 | 101 | 89 | 24 | 86 |  |  |  | 
3 | COc1cc(/C=C/C=O)ccc1OCC=C(C)C [BOROPINAL] | 0.786 | 63 | 0.045 |  |  |  | 79 | 96 | 94 | 0.22 | 83 |  |  |  | 
4 | COc1cc(/C=C/C(=O)O)ccc1O [FERULATE] |  | 0.5 | 1.2 |  |  |  | 92 | 100 | 96 |  | 99 |  |  |  | 
5 | COc1ccc2[nH]cc(CCNC(C)=O)c2c1 [MELATONIN] |  | 0.9 | 30000 |  |  |  | 92 | 91 | 87 | 0.2 | 91 |  |  |  | 
6 | CC(C)=CCC/C(C)=C/CC/C(C)=C/COc1ccc2ccc(=O)oc2c1 [UMBELLIPRENIN] |  | 30 |  |  | 1.6 | 3.3 | 60 | 61 | 81 |  | 85 | 9 | -52 | 23 | 7

Continued, in another order:

Row | Ki [3] [µM] | IC50 (MDA-MB-231 [4]) [µM] | IC50 (BT-549 [7]) [µM] | IC50 (MCF7 [13]) [µM] | KiH [14] [nM] | KiL [14] [nM] | SMILES | Efficacy (MDA-MB-231 [1]) [%] | Efficacy [2] [%] | Efficacy (MCF7 [5]) [%] | IC50 [6] [µM] | Efficacy (BT-549 [8]) [%] | inhibition at 100 µM (MCF7 [9]) [%] | inhibition at 100 µM (MDA-MB-231 [10]) [%] | inhibition at 100 µM (BT-549 [11]) [%] | inhibition at 100 µM [12] [%]
7 | 59 | 22 | 5.6 |  |  |  | COc1cc(/C=C/C(=O)O)ccc1OC/C=C(\C)CCC=C(C)C | 79 | 99 | 102 | 2.5 | 93 |  |  |  | 
8 | 1.9 | 80 | 24 |  |  |  | CC(C)=CCC/C(C)=C/COc1ccc2ccc(=O)oc2c1 | 67 | 57 | 90 |  | 86 | 3 | -36 | 7 | 5
9 | 5.2 |  | 37 |  |  |  | CC(C)=CCOc1ccc2ccc(=O)oc2c1 [7-PRENYLOXYCOUMARIN] | 83 | 98 | 105 |  | 94 |  |  |  | 
10 |  |  | 15 | 0.7 |  |  | COc1cc(/C=C/C(=O)O)ccc1OCC=C(C)C [BOROPINIC ACID] | 89 | 98 | 102 | 6.1 | 97 |  |  |  | 
11 |  | 3.7 | 1000 | 2.9 |  |  | O=c1ccc2ccc(O)cc2o1 [UMBELLIFERONE] | 88 | 93 | 124 |  | 91 |  |  |  | 
